# “Also recorded” adds a separate entry of the source.
# Columns and labels:
# [1] = cited from earlier work
# [2] = tested on: MDA-MB-468 cells; assay: three-dimensional spheroid multi-parametric assay, MDA-MB-468; assay type: cell-based, human; conditions: MDA-MB-468 spheroids, 24 h; for activity / potency in cell line (image analysis, FIG. 2): average of three experiments
# Experimental: Controls included 10 μM ABT737, 5 μg/mL 5-fluorouracil, 0.5 μg/mL doxorubicin, media alone, and solvent controls. After treatments, cells were labeled with the cell permeable nuclear stain Hoechst 33342, a marker for cleaved caspase 3/7, and the cell impermeable nucleic acid stain 7AAD for three hours. Cells were fixed then images acquired using a high content imager at 10× magnification. Scale bars represent 200 μm. The experiment was repeated 3 times.
# MDA-MB-231 or MDA-MB-468 cells were plated on a black plate with clear bottom low adherence spheroid 384-well tissue culture plate (Corning 3830; Corning NY) at a concentration of 1,500 cells per well in ice-cold complete media without phenol red containing 2.5% matrigel (BD Biosciences, Billerica, MA) in a final volume of 30 μL/well and allowed to adhere for 24 hours. After confirming the formation of a spheroid, 30 μL of medium containing treatment at two times the final concentration was added. Treatments consisted of 10, 5, 2.5 or 1.25 μM oxfendazole (OFZ), 5, 2.5, 1.25 or 0.625 μM parbendazole (PBZ) or a combination 10/5, 5/2.5, 2.5/1.25 or 1.25/0.625 μM OFZ/PBZ. Controls included 10 μM ABT737, 5 μg/mL 5-fluorouracil, 0.5 μg/mL doxorubicin, media alone, and solvent controls. Solvent for drug treatments was 10% DMSO by weight. Cells were incubated with treatment for 24 h. At the end of this incubation 20 μL/well of a staining mixture containing 2 drops/mL NucBlue Live Cell Stain Hoechst 33342 (Molecular Probes, Eugene, OR), 5 μM CellEvent™ Caspase-3/7 Green Detection Reagent (Molecular Probes, Eugene, OR) and […] 7-amino-actinomycin D (7AAD; Sigma, St. Louis, MO) were added and allowed to incubate for 3 h. Cells were fixed with 4% paraformaldehyde by weight. Images were acquired using the ImageXpress® Micro XLS widefield HCS (Molecular Devices, Sunnyvale, CA), with a 10× Plan Fluor objective, binning at 2 and focusing on plate bottom, then offset by bottom thickness. A stack of 8 images separated by 10 μm starting at the well bottom and covering approximately the lower half of each spheroid were acquired. The best focus projection of this stack was analyzed using the Multi-Wavelength Cell Scoring Module of the MetaXpress 5.1.0.3 software (Molecular Devices, Sunnyvale, CA). The results were plotted using Microsoft excel (Redmond, WA). To normalize results, the solvent control values were subtracted from the 7AAD and the Caspase 3 percent positive results for treatment samples. Total cell count was expressed as a percentage comparing treatments to respective solvent controls. Compounds were tested in duplicate within plates. The in vitro effectiveness of BZs, either singly or in combination on tumor cytotoxicity using MDA-MB468 human breast cancer cell line spheroids was assessed. […]
# [3] = tested on: MDA-MB-231 cells; assay: three-dimensional spheroid multi-parametric assay, MDA-MB-231; assay type: cell-based, human; conditions: MDA-MB-231 spheroids, 24 h; for activity / potency in cell line (image analysis, FIG. 4): average of three experiments
# Experimental: MDA-MB-231 or MDA-MB-468 cells were plated on a black plate with clear bottom low adherence spheroid 384-well tissue culture plate (Corning 3830; Corning NY) at a concentration of 1,500 cells per well in ice-cold complete media without phenol red containing 2.5% matrigel (BD Biosciences, Billerica, MA) in a final volume of 30 μL/well and allowed to adhere for 24 hours. After confirming the formation of a spheroid, 30 μL of medium containing treatment at two times the final concentration was added. Treatments consisted of 10, 5, 2.5 or 1.25 μM oxfendazole (OFZ), 5, 2.5, 1.25 or 0.625 μM parbendazole (PBZ) or a combination 10/5, 5/2.5, 2.5/1.25 or 1.25/0.625 μM OFZ/PBZ. Controls included 10 μM ABT737, 5 μg/mL 5-fluorouracil, 0.5 μg/mL doxorubicin, media alone, and solvent controls. Solvent for drug treatments was 10% DMSO by weight. Cells were incubated with treatment for 24 h. At the end of this incubation 20 μL/well of a staining mixture containing 2 drops/mL NucBlue Live Cell Stain Hoechst 33342 (Molecular Probes, Eugene, OR), 5 μM CellEvent™ Caspase-3/7 Green Detection Reagent (Molecular Probes, Eugene, OR) and […] 7-amino-actinomycin D (7AAD; Sigma, St. Louis, MO) were added and allowed to incubate for 3 h. Cells were fixed with 4% paraformaldehyde by weight. Images were acquired using the ImageXpress® Micro XLS widefield HCS (Molecular Devices, Sunnyvale, CA), with a 10× Plan Fluor objective, binning at 2 and focusing on plate bottom, then offset by bottom thickness. A stack of 8 images separated by 10 μm starting at the well bottom and covering approximately the lower half of each spheroid were acquired. The best focus projection of this stack was analyzed using the Multi-Wavelength Cell Scoring Module of the MetaXpress 5.1.0.3 software (Molecular Devices, Sunnyvale, CA). The results were plotted using Microsoft excel (Redmond, WA). To normalize results, the solvent control values were subtracted from the 7AAD and the Caspase 3 percent positive results for treatment samples. Total cell count was expressed as a percentage comparing treatments to respective solvent controls. Compounds were tested in duplicate within plates. The in vitro effectiveness of BZs, either singly or in combination on tumor cytotoxicity using MDA-MB468 human breast cancer cell line spheroids was assessed.
# FIG. 3 illustrates the in vitro effectiveness of BZs, either singly or in combination on tumor cytotoxicity using MDA-MB4231 human breast cancer cell line spheroids. […] Images were analyzed to determine cell counts based on DNA (Hoechst 33342 stain; blue), those dying through apoptosis by following cleavage of caspase 3, and cells dead or dying as measured by the loss of their membrane integrity (7-aminoactinomycin; red). […]
# [4] = tested on: 4T1Br4 mammary tumor cells; assay: 4T1Br4 triple negative breast cancer model in BALB/c mice, oral gavage treatment
# Text: Light to ten-week-old BALB/c mice (Charles River Laboratories; total of 48 mice) are orthotopically injected with 25,000-50,000 4T1Br4 mammary tumor cells in 100 microliters unilaterally into 4th mammary fat pad. Primary tumor growth was monitored by caliper measurements and biweekly body weight and wellness checks. When tumor size reached 0.5-0.7 cu cm, animals were divided into 4 experimental groups: 1) No Treatment (n=8), 2) Single OFZ Treatment (n=8), 3) Single CMP Treatment (n=16), 4) Combination CMP and OFZ/PBZ Treatment (n=16). Treatments started at 2 weeks post cancer cell inoculation. The following are the oral gavage doses: OFZ, 5 mg/kg; PBZ, 9 mg/kg; FBZ, 10 mg/kg; CMPs 10 mg/kg. All drugs are dissolved in sterile saline and final gavage volume is 200 microliters per mouse. […] When primary tumors reach 1 cu cm, they were excised under general anesthesia for all groups except for half of the animals in single CMP and combination CMP and BZ treatments. For those groups, half of the animals in each of these drug treatments received tumor excision surgery and for the remaining half, the primary tumors are untouched throughout the course of the experiment. Primary tumor size, percentage tumor growth compared to pre-treatment baseline, body weights and survival were assessed. Upon death, necropsy was conducted to assess metastatic tumor growth in distal organs. […] Treatment started 2 weeks past orthotopic cancer cell inoculation. […] Values are represented as means+SEMs.
# Treatment started 2 weeks post-cancer cell inoculation. […] Data are represented as group averages+SEMs.
# Measures were averaged for each week and represented as Means+SEMs. Treatment started two weeks post-inoculation with cancer cells.
# Necropsy was then conducted on the animals that expired for assessment of gross metastasis in lungs, brain and liver that may be responsible for expiration of mice. Detailed necropsy was performed and archived for each animal.
# [5] = cited from earlier work; remark: listed apart in the source
structure (smiles),measurement,setting,value
"CCCCc1ccc2nc(NC(=O)OC)[nH]c2c1 [PBZ, N-(6-butyl-1H-benzimidazol-2-yl) carbamic acid methyl ester]",time to peak blood levels,[1]; after oral administration,6 to 8 h
same,time to full recovery of liver function after cessation of treatment,[1]; transient liver function suppression,≤ 2 weeks
same,caspase 3/7 cleavage,[2],caused more caspase cleavage
same,"activity / potency in cell line (image analysis, FIG. 2)",[2],active; also recorded: statistically significantly more potent than OFZ
same,caspase cleavage (induction of apoptosis),[3],caused caspase cleavage
same,"activity / potency in cell line (image analysis, FIG. 4)",[3],statistically significantly more potent than OFZ
"COC(=O)Nc1nc2ccc([S+]([O-])c3ccccc3)cc2[nH]1 (stereo not shown) [OFZ, (5-(phyenylsulphinyl)-18-benzimidazole-2yl) carmabic acid methyl ester]",time of expiration / euthanasia of representative mouse,[4]; days post cancer cell inoculation,32 days
same,lung metastasis at necropsy,[4]; gross necropsy,extensive metastases in the mouse lungs
same,cause of death of group,"[4]; necropsy, listed as OFZ Alone",expired entirely due to lung metastasis; also recorded: metastatic process in the lungs as cause of death
same,angiogenesis at tumor / excision site,[4]; representative mouse,angiogenesis is visible
same,splenomegaly,"[4]; representative mouse, necropsy",instances of splenomegaly
same,body weight across treatment weeks (FIG. 7),"[4]; tumor-bearing mice, measured biweekly",significant decline in bodyweight measurements
same,survival at 6th week of treatment (animals remaining),[4]; week 6 of treatment,deceased
same,plasma half-life,[5]; in animals,8.5 to 11 h
same,tolerability / toxicity,[5]; in vivo,extremely well-tolerated with no known toxicity
same,death by loss of membrane integrity (7AAD),[2],favoring death by loss of membrane integrity
same,"activity / potency in cell line (image analysis, FIG. 2)",[2],active
same,caspase cleavage (induction of apoptosis),[3],caused caspase cleavage
same,"activity / potency in cell line (image analysis, FIG. 4)",[3],more modest activity

# — US12194058B2, “Cancer treatment regimen using anti-parasitic compounds and gut microbiome modulating agents” (FLORIDA ATLANTIC UNIVERSITY BOARD OF TRUSTEES, priority 2021, dated 2025)
